Consider five compounds from patent US20260092071A1, “COMPOUNDS AND COMPOSITIONS AS SMARCA2/4 DEGRADERS AND USES THEREOF” (REGENTS OF THE UNIVERSITY OF MICHIGAN, priority 2022, published 2026).

Structures are written as SMILES.

The target in the assay is SMARCA2 (Homo sapiens, UniProt P51531). In words: HiBiT assay for protein degradation, Hela SMARCA2-HiBiT cells (A series). It is filed as cell-based. Also on record: Hela cells were genetically modified via CRISPR/Cas9 to fuse HiBiT to the carboxy terminus of SMARCA2; host or cells: HeLa (CRISPR/Cas9 HiBiT knock-in). Conditions: Hela SMARCA2-HiBiT cells, 24 hours treatment; for Dmax: read-out: SMARC A2 Hela HiBit Dmax (%); for DC50: read-out: SMARC A2 Hela HiBit DC50. As to the method: Hela cells were genetically modified via CRISPR/Cas9 to fuse HiBiT to the carboxy terminus of SMARCA2 (Promega CS302365) or SMARCA4 (Promega CS3023225). Cells were cultured in DMEM containing 10% FBS and 1% (Vol:Vol) penicillin-streptomycin. […] At the end of experiment, levels of SMARCA2 or SMARCA4 expression were assessed with Nano-Glo® HiBiT Lytic Detection Assay (Promega N3050). IC50 was obtained using the GraphPad Prism data analysis software.
SMARCA2, sequence (P51531 whole entry): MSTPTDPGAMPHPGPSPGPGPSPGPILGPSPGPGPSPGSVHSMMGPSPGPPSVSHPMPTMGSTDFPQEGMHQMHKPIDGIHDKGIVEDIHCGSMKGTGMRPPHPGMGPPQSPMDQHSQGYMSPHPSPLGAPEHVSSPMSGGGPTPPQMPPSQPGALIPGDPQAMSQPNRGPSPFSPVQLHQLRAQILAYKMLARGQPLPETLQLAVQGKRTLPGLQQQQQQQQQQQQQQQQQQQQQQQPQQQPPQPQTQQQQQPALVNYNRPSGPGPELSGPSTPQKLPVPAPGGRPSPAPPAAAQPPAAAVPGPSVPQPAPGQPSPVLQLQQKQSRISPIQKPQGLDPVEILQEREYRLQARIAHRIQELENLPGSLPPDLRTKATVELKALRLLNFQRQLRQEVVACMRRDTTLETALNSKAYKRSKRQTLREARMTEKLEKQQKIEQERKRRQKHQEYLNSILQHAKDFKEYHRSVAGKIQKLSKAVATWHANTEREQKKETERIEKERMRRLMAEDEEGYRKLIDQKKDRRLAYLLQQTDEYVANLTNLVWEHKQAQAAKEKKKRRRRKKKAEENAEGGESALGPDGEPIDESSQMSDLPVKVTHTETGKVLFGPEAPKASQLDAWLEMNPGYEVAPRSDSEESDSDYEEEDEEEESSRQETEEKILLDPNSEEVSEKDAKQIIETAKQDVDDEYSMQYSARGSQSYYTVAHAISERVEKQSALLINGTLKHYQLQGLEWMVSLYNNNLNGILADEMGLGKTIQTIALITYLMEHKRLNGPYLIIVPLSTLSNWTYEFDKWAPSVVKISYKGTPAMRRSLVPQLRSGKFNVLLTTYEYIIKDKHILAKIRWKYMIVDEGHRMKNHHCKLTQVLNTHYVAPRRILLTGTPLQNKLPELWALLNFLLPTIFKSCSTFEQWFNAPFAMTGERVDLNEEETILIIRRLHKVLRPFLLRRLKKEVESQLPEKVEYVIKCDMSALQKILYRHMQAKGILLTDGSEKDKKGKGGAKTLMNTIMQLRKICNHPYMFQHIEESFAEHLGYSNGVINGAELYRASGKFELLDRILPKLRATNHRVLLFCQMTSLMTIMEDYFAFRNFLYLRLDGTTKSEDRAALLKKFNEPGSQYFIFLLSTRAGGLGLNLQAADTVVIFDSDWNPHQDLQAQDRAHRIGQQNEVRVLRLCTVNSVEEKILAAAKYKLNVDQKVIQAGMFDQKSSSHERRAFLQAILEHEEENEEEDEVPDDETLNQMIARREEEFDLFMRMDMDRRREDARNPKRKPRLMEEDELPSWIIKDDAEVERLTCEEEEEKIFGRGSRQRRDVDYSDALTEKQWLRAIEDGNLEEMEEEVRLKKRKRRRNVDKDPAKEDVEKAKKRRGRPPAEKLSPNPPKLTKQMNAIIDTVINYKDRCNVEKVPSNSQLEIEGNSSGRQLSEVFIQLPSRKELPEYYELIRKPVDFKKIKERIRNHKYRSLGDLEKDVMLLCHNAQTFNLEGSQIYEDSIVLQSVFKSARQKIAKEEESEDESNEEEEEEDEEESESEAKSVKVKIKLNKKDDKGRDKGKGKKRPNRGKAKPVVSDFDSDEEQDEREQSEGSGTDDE

Consider `Cc1ncsc1-c1ccc([C@H](CN2CCOCC2)NC(=O)[C@@H]2C[C@@H](O)CN2C(=O)[C@@H](n2cc([C@H]3CC[C@H](CN4CCC(c5ccc6c(c5)-n5c(nc(=O)c7c(Br)cccc75)C65CCCCC5)CC4)CC3)nn2)C(C)(C)C)cc1` [Compound A69, (2S,4R)-1-((S)-2-(4-((1r,4S)-4-((4-(4′-bromo-5′-oxo-5′H-spiro[cyclohexane-1,7′-indolo[1,2-a]quinazolin]-10′-yl)piperidin-1-yl)methyl)cyclohexyl)-1H-1,2,3-triazol-1-yl)-3,3-dimethylbutanoyl)-4-hydroxy-N—((R)-1-(4-(4-methylthiazol-5-yl)phenyl)-2-morpholinoethyl)pyrrolidine-2-carboxamide], for which the Dmax was above 90% and the DC50 was below 0.1 µM.

On to `Cc1ncsc1-c1ccc([C@H](CCN2CC(C)(O)C2)NC(=O)[C@@H]2C[C@@H](O)CN2C(=O)[C@@H](n2cc([C@H]3CC[C@H](CN4CCC(c5ccc6c(c5)-n5c(nc(=O)c7c(Cl)cccc75)C65CCCCC5)CC4)CC3)nn2)C(C)(C)C)cc1` [Compound A80, (2S,4R)-1-((S)-2-(4-((1r,4S)-4-((4-(4′-chloro-5′-oxo-5′H-spiro[cyclohexane-1,7′-indolo[1,2-a]quinazolin]-10′-yl)piperidin-1-yl)methyl)cyclohexyl)-1H-1,2,3-triazol-1-yl)-3,3-dimethylbutanoyl)-4-hydroxy-N—((S)-3-(3-hydroxy-3-methylazetidin-1-yl)-1-(4-(4-methylthiazol-5-yl)phenyl)propyl)pyrrolidine-2-carboxamide], for which the Dmax was 70 to 90% and the 50% degradation concentration (DC50) lay in the range of 0.01 to 0.1 µM.

In the case of `COCCOCCOCC[C@H](NC(=O)[C@@H]1C[C@@H](O)CN1C(=O)[C@@H](n1cc([C@H]2CC[C@H](CN3CCC(c4ccc5c(c4)-n4c(nc(=O)c6c(Cl)cccc64)C54CCCCC4)CC3)CC2)nn1)C(C)(C)C)c1ccc(-c2scnc2C)cc1` [Compound A82, (2S,4R)-1-((S)-2-(4-((1r,4S)-4-((4-(4′-chloro-5′-oxo-5′H-spiro[cyclohexane-1,7′-indolo[1,2-a]quinazolin]-10′-yl)piperidin-1-yl)methyl)cyclohexyl)-1H-1,2,3-triazol-1-yl)-3,3-dimethylbutanoyl)-4-hydroxy-N—((S)-3-(2-(2-methoxyethoxy)ethoxy)-1-(4-(4-methylthiazol-5-yl)phenyl)propyl)pyrrolidine-2-carboxamide], the Dmax is above 90% and the DC50 is below 0.01 µM.

With `Cc1ncsc1-c1ccc([C@H](CCN2CCOCC2)NC(=O)[C@@H]2C[C@@H](O)CN2C(=O)[C@@H](n2cc([C@H]3CC[C@H](CN4CCC(c5ccc6c(c5)-n5c(nc(=O)c7c(Cl)cccc75)C65CCCCC5)CC4)CC3)nn2)C(C)(C)C)cc1` [Compound A81, (2S,4R)-1-((S)-2-(4-((1r,4S)-4-((4-(4′-chloro-5′-oxo-5′H-spiro[cyclohexane-1,7′-indolo[1,2-a]quinazolin]-10′-yl)piperidin-1-yl)methyl)cyclohexyl)-1H-1,2,3-triazol-1-yl)-3,3-dimethylbutanoyl)-4-hydroxy-N—((S)-1-(4-(4-methylthiazol-5-yl)phenyl)-3-morpholinopropyl)pyrrolidine-2-carboxamide], the Dmax was above 90% and the DC50 is below 0.01 µM.

`Cc1ncsc1-c1ccc([C@H](CN2CCOCC2)NC(=O)[C@@H]2C[C@@H](O)CN2C(=O)[C@@H](n2cc(C3CCN(CC4CCN(c5ccc6c(c5)-n5c(nc(=O)c7c(Cl)cccc75)C65CCCCC5)CC4)CC3)nn2)C(C)(C)C)cc1` [Compound A168, (2S,4R)-1-((S)-2-(4-(1-((1-(4′-chloro-5′-oxo-5′H-spiro[cyclohexane-1,7′-indolo[1,2-a]quinazolin]-10′-yl)piperidin-4-yl)methyl)piperidin-4-yl)-1H-1,2,3-triazol-1-yl)-3,3-dimethylbutanoyl)-4-hydroxy-N—((R)-1-(4-(4-methylthiazol-5-yl)phenyl)-2-morpholinoethyl)pyrrolidine-2-carboxamide]: the Dmax was below 50% and the DC50 was above 1 µM.
